The source of these data is patent publication US20250263370A1 (Tay Therapeutics Limited, priority 2022, published 2025).

Like-named read-outs stand apart in the source and are kept apart here. Some results are limits rather than exact numbers.

The target of one test is BRD4 BD1 (Homo sapiens (Human), UniProt O60885). The test can be described thus: NanoBRET bromodomain assay, NanoLuc-BRD4-BD1 fusion in HEK293 cells. Format: cell-based. To be noted: top concentration 10 μM.
The next test addresses BRD4 BD2 (Homo sapiens (Human), UniProt O60885). The experiment in a line: NanoBRET bromodomain assay, NanoLuc-BRD4-BD2 fusion in HEK293 cells.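 As to all read-outs here: tracer displacement BRET read in transfected cells after 2 h compound exposure at 37 °C, signal in milliBRET units corrected against no-tracer background wells.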 To be noted: for IC50: NanoBRET, HEK293 cells, top concentration 10 μM; for Fold selectivity: IC50 for BRD4 BD1 divided by IC50 for BRD4 BD2, qualitative if an IC50 is at the upper limit.

Protocol for BRD4 BD1: HEK293 cells were transfected using NanoLuc-BRD4-BD1 or NanoLuc-BRD4-BD2 fusion vectors and incubated at 37° C. in an atmosphere of 5% CO2 for 20-24 hours. The transfected cells were then dispensed into 96-well plates using 90 μl cell suspension per well containing 2×10^5 cells/mL in Opti-MEM and 1× final concentration of tracer. 90 μL per well of cell suspension without tracer was also dispensed into at least 3 wells as “No tracer control samples” for background correction. Serially diluted test compounds were prepared at 1000× concentration in DMSO and further diluted to 10× concentration in Opti-MEM. […] Plates were then incubated at 37° C. +5% 002 incubator for 2 hours. […] Donor emission (450 nm) and acceptor emission (610 nm) were measured using PHERAstar (BMG LabTech). For data analysis, the raw BRET ratio was generated and converted to milliBRET units with background correction using the formula: [(Acceptorsample/Donorsample−(Acceptorno tracer control/Donorno tracer control)]×1000. The mBU data was plotted as a function of compound concentration and IC50s for BRET assay were determined by nonlinear regression analysis of concentration response curves using the Collaborative Drug Discovery Vault software. The fold-selectivity was calculated by dividing the IC50 for BRD4 BD1 by the IC50 for BRD4 BD2.

As for `CCNC(=O)c1cc(OC(C)c2ccccc2C(F)(F)F)c(C(=O)NC)[nH]1` (racemic) [Example 2, N^5-ethyl-N^2-methyl-3-(1-(2-(trifluoromethyl)phenyl)ethoxy)-1H-pyrrole-2,5-dicarboxamide], the IC50 is at least 10 µM at BRD4 BD1 and 0.05 to 0.2 µM against BRD4 BD2 (BRD4 BD2 (IC50)). In addition, at BRD4 BD2, the Fold selectivity result was “XX (Fold >50 and ≤200)”.
On to `CCNC(=O)c1cc(OC(C)c2ccc(F)cc2)c(C(=O)NC)[nH]1` (racemic) [Example 127, N^5-ethyl-3-(1-(4-fluorophenyl)ethoxy)-N^2-methyl-1H-pyrrole-2,5-dicarboxamide], for which the half-inhibitory concentration (IC50) was at least 10 µM on BRD4 BD1 and 0.05 to 0.2 µM on BRD4 BD2 (BRD4 BD2 (IC50)). The Fold selectivity result on BRD4 BD2 was “XX (Fold >50 and ≤200)”.
As to `CNC(=O)c1[nH]c(C(=O)N[C@H](C)C(F)(F)F)cc1O[C@@H](C)c1ccccc1` [Example 119, N^2-methyl-3-((S)-1-phenylethoxy)-N^5-((R)-1,1,1-trifluoropropan-2-yl)-1H-pyrrole-2,5-dicarboxamide], the results for the IC50 on BRD4 BD1 and against BRD4 BD2 (BRD4 BD2 (IC50)) were at least 10 µM and above 10 µM, respectively. Also, the Fold selectivity result at BRD4 BD2 is “— (Fold ≥0 and ≤2)”.
In the case of `CCNC(=O)c1cc(OC(C)c2ccnnc2)c(C(=O)NC)[nH]1` (single isomer, unassigned) [Example 78, N^5-ethyl-N^2-methyl-3-(1-(pyridazin-4-yl)ethoxy)-1H-pyrrole-2,5-dicarboxamide], the results for the IC50 on BRD4 BD1 and at BRD4 BD2 (BRD4 BD2 (IC50)) were at least 10 µM and above 10 µM, respectively. For the same compound, at BRD4 BD2, the Fold selectivity result was “— (Fold ≥0 and ≤2)”.
As to `CCNC(=O)c1cc(OC(C)c2ccccc2C#N)c(C(=O)NC)[nH]1` (racemic) [Example 11, 3-(1-(2-cyanophenyl)ethoxy)-N^5-ethyl-N^2-methyl-1H-pyrrole-2,5-dicarboxamide], the IC50 against BRD4 BD1 is at least 10 µM; against BRD4 BD2 (BRD4 BD2 (IC50)) it was above 10 µM. For the same compound, at BRD4 BD2, the Fold selectivity result is “— (Fold ≥0 and ≤2)”.
Turning to `CCNC(=O)c1cc(OC(C)c2ccc(I)cc2)c(C(=O)NC)[nH]1` (single isomer, unassigned) [Example 52, N^5-ethyl-3-(1-(4-iodophenyl)ethoxy)-N^2-methyl-1H-pyrrole-2,5-dicarboxamide], the IC50 on BRD4 BD1 is at least 10 µM; at BRD4 BD2 (BRD4 BD2 (IC50)) it was above 10 µM. The Fold selectivity entry at BRD4 BD2 was “— (Fold ≥0 and ≤2)”.
Turning to `CNC(=O)c1[nH]c(C(=O)N[C@@H](C)C(F)(F)F)cc1O[C@@H](C)c1ccccc1` [Example 120, N^2-methyl-3-((S)-1-phenylethoxy)-N^5-((S)-1,1,1-trifluoropropan-2-yl)-1H-pyrrole-2,5-dicarboxamide], the figures for the IC50 on BRD4 BD1 and against BRD4 BD2 (BRD4 BD2 (IC50)) were at least 10 µM and above 10 µM, respectively. For the same compound, the Fold selectivity entry on BRD4 BD2 was “— (Fold ≥0 and ≤2)”.
In the case of `CNC(=O)c1[nH]c(-c2cc(C)nn2C)cc1O[C@H](C)c1ccccc1` [Example 82, (R)-5-(1,3-dimethyl-1H-pyrazol-5-yl)-N-methyl-3-(1-phenylethoxy)-1H-pyrrole-2-carboxamide], the IC50 is at least 10 µM at BRD4 BD1 and above 10 µM at BRD4 BD2 (BRD4 BD2 (IC50)). For the same compound, the Fold selectivity entry on BRD4 BD2 was “— (Fold ≥0 and ≤2)”.
On to `CCNC(=O)c1cc(OC(C)c2ccc(Cl)cc2F)c(C(=O)NC)[nH]1` (single isomer, unassigned) [Example 42, 3-(1-(4-chloro-2-fluorophenyl)ethoxy)-N^5-ethyl-N^2-methyl-1H-pyrrole-2,5-dicarboxamide], for which the IC50 at BRD4 BD1 is at least 10 µM; on BRD4 BD2 (BRD4 BD2 (IC50)) it was above 10 µM. On BRD4 BD2, the Fold selectivity entry was “— (Fold ≥0 and ≤2)”.
As for `CCNC(=O)c1cc(OC(C)c2ccc(Cl)cc2)c(C(=O)NC)[nH]1` (single isomer, unassigned) [Example 19, 3-(1-(4-chlorophenyl)ethoxy)-N^5-ethyl-N^2-methyl-1H-pyrrole-2,5-dicarboxamide], the half-maximal inhibitory concentration (IC50) against BRD4 BD1 is at least 10 µM; on BRD4 BD2 (BRD4 BD2 (IC50)), above 10 µM. In addition, the Fold selectivity result on BRD4 BD2 was “— (Fold ≥0 and ≤2)”.
`CNC(=O)c1[nH]c(-c2ccccc2F)cc1O[C@@H](C)c1ccccc1` [Example 85, (S)-5-(2-fluorophenyl)-N-methyl-3-(1-phenylethoxy)-1H-pyrrole-2-carboxamide]: the IC50 at BRD4 BD1 is at least 10 µM; against BRD4 BD2 (BRD4 BD2 (IC50)), 1 to 10 µM. The Fold selectivity result at BRD4 BD2 is “X (Fold >2 and ≤50)”.
Turning to `CCNC(=O)c1cc(OC(C)c2ccccn2)c(C(=O)NC)[nH]1` (racemic) [Example 96, N^5-ethyl-N^2-methyl-3-(1-(pyridin-2-yl)ethoxy)-1H-pyrrole-2,5-dicarboxamide], the 50% inhibitory concentration (IC50) against BRD4 BD1 was at least 10 µM; against BRD4 BD2 (BRD4 BD2 (IC50)) it was 0.2 to 1 µM. For the same compound, on BRD4 BD2 (HEK293, read-out: BRD4 BD2 % Activity Remaining @ 10 uM, 10 uM, (2) = second batch), the remaining activity at 10 µM came to 30%. In addition, on BRD4 BD2, the Fold selectivity result was “X (Fold >2 and ≤50)”.
On to `CNC(=O)c1[nH]c(-c2cc(C)nn2C)cc1O[C@@H](C)c1ccccc1` [Example 81, (S)-5-(1,3-dimethyl-1H-pyrazol-5-yl)-N-methyl-3-(1-phenylethoxy)-1H-pyrrole-2-carboxamide], for which the IC50 is at least 10 µM at BRD4 BD1 and 0.05 to 0.2 µM against BRD4 BD2 (BRD4 BD2 (IC50)). For the same compound, the Fold selectivity result on BRD4 BD2 is “XX (Fold >50 and ≤200)”.
Turning to `CNC(=O)c1[nH]c(-c2ccc(F)cc2F)cc1O[C@@H](C)c1ccccc1` [Example 86, (S)-5-(2,4-difluorophenyl)-N-methyl-3-(1-phenylethoxy)-1H-pyrrole-2-carboxamide], the figures for the IC50 on BRD4 BD1 and against BRD4 BD2 (BRD4 BD2 (IC50)) were at least 10 µM and 1 to 10 µM, respectively. For the same compound, the Fold selectivity entry at BRD4 BD2 was “X (Fold >2 and ≤50)”.
Take `CCNC(=O)c1cc(OC(C)c2cccc(C#N)c2)c(C(=O)NC)[nH]1` (stereo not shown) [Example 4, 3-(1-(3-cyanophenyl)ethoxy)-N^5-ethyl-N^2-methyl-1H-pyrrole-2,5-dicarboxamide]: the IC50 on BRD4 BD1 was at least 10 µM; on BRD4 BD2 (BRD4 BD2 (IC50)) it was above 10 µM. For the same compound, the Fold selectivity result at BRD4 BD2 is “— (Fold ≥0 and ≤2)”.
As for `CCNC(=O)c1cc(OC(C)c2ccc(Cl)cc2)c(C(=O)NC)[nH]1` (racemic) [Example 122, 3-(1-(4-chlorophenyl)ethoxy)-N^5-ethyl-N^2-methyl-1H-pyrrole-2,5-dicarboxamide], the figures for the half-maximal inhibitory concentration (IC50) on BRD4 BD1 and against BRD4 BD2 (BRD4 BD2 (IC50)) were at least 10 µM and 0.05 to 0.2 µM, respectively. Besides, the Fold selectivity result at BRD4 BD2 is “XX (Fold >50 and ≤200)”.
As to `CNC(=O)c1[nH]c(C(=O)N[C@H]2CC[C@H](O)CC2)cc1O[C@@H](C)c1ccnnc1` (single isomer, unassigned) [Example 91, N^5-(4-hydroxycyclohexyl)-N^2-methyl-3-(1-(pyridazin-4-yl)ethoxy)-1H-pyrrole-2,5-dicarboxamide], the values for the IC50 on BRD4 BD1 and against BRD4 BD2 (BRD4 BD2 (IC50)) were at least 10 µM and above 10 µM, respectively. For the same compound, the Fold selectivity result on BRD4 BD2 is “— (Fold ≥0 and ≤2)”.
Consider `CCNC(=O)c1cc(OC(C)c2cccc(C)c2)c(C(=O)NC)[nH]1` (racemic) [Example 17, N^5-ethyl-N^2-methyl-3-(1-(m-tolyl)ethoxy)-1H-pyrrole-2,5-dicarboxamide], for which the half-inhibitory concentration (IC50) at BRD4 BD1 was at least 10 µM; at BRD4 BD2 (BRD4 BD2 (IC50)), 0.05 to 0.2 µM. Besides, at BRD4 BD2, the Fold selectivity entry was “XX (Fold >50 and ≤200)”.
`CCNC(=O)c1cc(OC(C)c2ccc3c(c2)COC3)c(C(=O)NC)[nH]1` (racemic) [Example 15, 3-(1-(1,3-dihydroisobenzofuran-5-yl)ethoxy)-M-ethyl-N^2-methyl-1H-pyrrole-2,5-dicarboxamide]: the values for the IC50 on BRD4 BD1 and against BRD4 BD2 (BRD4 BD2 (IC50)) were at least 10 µM and 0.2 to 1 µM, respectively. For the same compound, the Fold selectivity entry at BRD4 BD2 was “X (Fold >2 and ≤50)”.
For `CNC(=O)c1[nH]c(C(=O)N[C@H]2CC[C@H](O)CC2)cc1O[C@@H](C)c1ccnnc1` (single isomer, unassigned) [Example 94, N^5-(4-hydroxycyclohexyl)-N^2-methyl-3-(1-(pyridazin-4-yl)ethoxy)-1H-pyrrole-2,5-dicarboxamide], the 50% inhibitory concentration (IC50) is at least 10 µM against BRD4 BD1 and above 10 µM at BRD4 BD2 (read-out: BRD4 BD2 (IC50)). The Fold selectivity result on BRD4 BD2 was “— (Fold ≥0 and ≤2)”.
As to `CCNC(=O)c1cc(OC(c2ccccc2)C(C)C)c(C(=O)NC)[nH]1` (racemic) [Example 77, N^5-ethyl-N^2-methyl-3-(2-methyl-1-phenylpropoxy)-1H-pyrrole-2,5-dicarboxamide], the figures for the IC50 against BRD4 BD1 and against BRD4 BD2 (BRD4 BD2 (IC50)) were at least 10 µM and above 10 µM, respectively. In addition, the Fold selectivity entry on BRD4 BD2 is “— (Fold ≥0 and ≤2)”.
As to `CNC(=O)c1[nH]c(C(=O)NC(C)C)cc1O[C@@H](C)c1ccccc1F` [Example 58, (S)-3-(1-(2-fluorophenyl)ethoxy)-N^5-isopropyl-N^2-methyl-1H-pyrrole-2,5-dicarboxamide], the figures for the half-maximal inhibitory concentration (IC50) on BRD4 BD1 and against BRD4 BD2 (BRD4 BD2 (IC50)) were at least 10 µM and 0.05 to 0.2 µM, respectively. Besides, the Fold selectivity result on BRD4 BD2 is “XX (Fold >50 and ≤200)”.
Take `CNC(=O)c1[nH]c(-c2cnn(C(F)(F)F)c2)cc1O[C@@H](C)c1ccccc1` [Example 83, (S)-N-methyl-3-(1-phenylethoxy)-5-(1-(trifluoromethyl)-1H-pyrazol-4-yl)-1H-pyrrole-2-carboxamide]: the results for the concentration for half-maximal inhibition (IC50) against BRD4 BD1 and at BRD4 BD2 (BRD4 BD2 (IC50)) were at least 10 µM and below 0.05 µM, respectively. For the same compound, at BRD4 BD2, the Fold selectivity entry is recorded as “XXX (Fold >200)”.
For `CCNC(=O)c1cc(OC(C)c2ccnnc2)c(C(=O)NC)[nH]1` (single isomer, unassigned) [Example 79, N^5-ethyl-N^2-methyl-3-(1-(pyridazin-4-yl)ethoxy)-1H-pyrrole-2,5-dicarboxamide], the half-maximal inhibitory concentration (IC50) on BRD4 BD1 is at least 10 µM; on BRD4 BD2 (BRD4 BD2 (IC50)) it was 1 to 10 µM. For the same compound, at BRD4 BD2, the Fold selectivity entry was “— (Fold ≥0 and ≤2)”.
As for `CCNC(=O)c1cc(OC(C)c2c(Cl)cccc2Cl)c(C(=O)NC)[nH]1` (single isomer, unassigned) [Example 66, 3-(1-(2,6-dichlorophenyl)ethoxy)-N^5-ethyl-N^2-methyl-1H-pyrrole-2,5-dicarboxamide], the IC50 on BRD4 BD1 was at least 10 µM; against BRD4 BD2 (BRD4 BD2 (IC50)), above 10 µM. Moreover, at BRD4 BD2, the Fold selectivity entry was “— (Fold ≥0 and ≤2)”.
As for `CCNC(=O)c1cc(OC(C)c2ccccc2F)c(C(=O)NC)[nH]1` (racemic) [Example 124, N^5-ethyl-3-(1-(2-fluorophenyl)ethoxy)-N^2-methyl-1H-pyrrole-2,5-dicarboxamide], the results for the 50% inhibitory concentration (IC50) against BRD4 BD1 and against BRD4 BD2 (BRD4 BD2 (IC50)) were at least 10 µM and 0.05 to 0.2 µM, respectively. The Fold selectivity entry on BRD4 BD2 was “XX (Fold >50 and ≤200)”.
